Key:
Type in all cases: biochemical
[1] = molecular target: T1, PKC theta (Homo sapiens, UniProt Q04759); assay: PKC Theta II 33P radiometric kinase assay; conditions: 0.5 nM PKC theta, 240 μM ATP, [γ-33P] ATP, 25° C., compound range 0-0.25 μM
Protocol: An assay buffer solution was prepared which consisted of 100 mM HEPES (pH 7.5), 10 mM MgCl2, 25 mM NaCl, 0.1 mM EDTA and 0.01% Brij. An enzyme buffer containing reagents to final assay concentrations of 0.002% Triton X-100, 200 μg/mL Phosphatidylserine, 20 μg/mL Diacylglycerol, 2 mM DTT, 150 μM substrate peptide ([…]) and 0.5 nM PKC theta kinase was prepared in assay buffer. To 22 μL of this enzyme buffer, in a 96 well plate, was added 2 μL of VRT stock solution in DMSO. The mixture was allowed to equilibrate for 10 mins at 25° C. […] ATP.
The reaction was stopped after 60 minutes by the addition of 100 μL 100 mM phosphoric acid. A phosphocellulose 96 well plate (Millipore, Cat no. MAPHNOB) was washed with […] 100 mM phosphoric acid prior to the addition of the reaction mixture (120 μL) and was left to soak for at least 30 minutes, prior to wash steps (4×200 μL 100 mM phosphoric acid). After drying, 100 μL Optiphase ‘SuperMix’ liquid scintillation cocktail (Perkin Elmer) was added to the well prior to scintillation counting (1450 Microbeta Liquid Scintillation Counter, Wallac).
For each Ki determination, 11 data points covering the VRT concentration range of 0-0.25 μM were obtained in duplicate (DMSO stocks were prepared from an initial 10 mM VRT stock with subsequent 1:2 serial dilutions). Ki values were calculated from initial rate data by non-linear regression using the Prism software package (Prism 4.0a, Graphpad Software, San Diego, Calif.).

[2] = molecular target: PKC delta kinase (Homo sapiens, UniProt Q05655); assay: PKC Delta coupled-enzyme kinase assay; conditions: 46 nM PKC delta, 150 μM ATP, 30° C.; read-out: Ki PKC delta
Outline: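 Assay buffer was 100 mM HEPES pH 7.5, 10 mM MgCl2, 25 mM NaCl, 0.1 mM EDTA, 0.01% Brij. Enzyme buffer was equilibrated with compound in DMSO for 10 min at 30 °C. Ki values were derived by non-linear regression of initial rate data.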

[3] = molecular target: PKC alpha kinase (Homo sapiens, UniProt P17252); assay: PKC Alpha coupled-enzyme kinase assay; conditions: 4.5 nM PKC alpha, 130 μM ATP, 30° C.
Protocol: (§1) An assay buffer solution was prepared which consisted of 100 mM HEPES (pH 7.5), 10 mM MgCl2, 25 mM NaCl, 0.1 mM EDTA, 100 μM CaCl2 and 0.01% Brij. […] To 16 μL of this enzyme buffer, in a 384 well plate, was added 1 μL of VRT stock solution in DMSO. The mixture was allowed to equilibrate for 10 mins at 30° C. The enzyme reaction was initiated by the addition of 16 μL stock ATP solution prepared in assay buffer to a final assay concentration of 130 μM. Initial rate data was determined from the rate of change of absorbance at 340 nm (corresponding to stoichiometric consumption of NADH) using a Molecular Devices Spectramax plate reader (Sunnyvale, Calif.) over 15 mins at 30° C. For each Ki determination 12 data points covering the VRT concentration range of 0-20 μM were obtained in duplicate (DMSO stocks were prepared from an initial 10 mM VRT stock with subsequent 1:2 serial dilutions). Ki values were calculated from initial rate data by non-linear regression using the Prism software package (Prism 4.0a, Graphpad Software, San Diego, Calif.).

[4] = molecular target: T1, PKC theta; assay: PKC Theta III assay, similar to PKC theta I with fluorescence read out; conditions: fluorescence read out rather than UV
Protocol: as §1, with “mM EDTA” for “mM EDTA, 100 μM CaCl2”, “To 60” for “To 16”, “added 2” for “added 1”, “of 5” for “of 16”, “of 240” for “of 130”
Compounds tested in an assay similar to PKC theta I above with a fluorescence read out rather than a UV read out gave the following results: D compounds are (2-aminopyridin-3-yl)(6-(1-benzylpiperidin-4-ylamino)pyridin-2-yl)methanone, and (2-aminopyridin-3-yl)(6-(2,3-dihydroxypropylamino)pyridin-2-yl)methanone (naming by ChemDraw Ultre version 10.0).

[5] = molecular target: T1, PKC theta; assay: PKC Theta I coupled-enzyme (NADH absorbance) kinase assay; conditions: 18 nM PKC theta, 240 μM ATP, 30° C., absorbance at 340 nm
Protocol: An assay buffer solution was prepared which consisted of 100 mM HEPES (pH 7.5), 10 mM MgCl2, 25 mM NaCl, 0.1 mM EDTA and 0.01% Brij. […] To 60 μL of this enzyme buffer, in a 384 well plate, was added 2 μL of VRT stock solution in DMSO. The mixture was allowed to equilibrate for 10 mins at 30° C. […] Ki values were calculated from initial rate data by non-linear regression using the Prism software package (Prism 4.0a, Graphpad Software, San Diego, Calif.).

Sequence of PKC delta kinase (Q05655 whole entry): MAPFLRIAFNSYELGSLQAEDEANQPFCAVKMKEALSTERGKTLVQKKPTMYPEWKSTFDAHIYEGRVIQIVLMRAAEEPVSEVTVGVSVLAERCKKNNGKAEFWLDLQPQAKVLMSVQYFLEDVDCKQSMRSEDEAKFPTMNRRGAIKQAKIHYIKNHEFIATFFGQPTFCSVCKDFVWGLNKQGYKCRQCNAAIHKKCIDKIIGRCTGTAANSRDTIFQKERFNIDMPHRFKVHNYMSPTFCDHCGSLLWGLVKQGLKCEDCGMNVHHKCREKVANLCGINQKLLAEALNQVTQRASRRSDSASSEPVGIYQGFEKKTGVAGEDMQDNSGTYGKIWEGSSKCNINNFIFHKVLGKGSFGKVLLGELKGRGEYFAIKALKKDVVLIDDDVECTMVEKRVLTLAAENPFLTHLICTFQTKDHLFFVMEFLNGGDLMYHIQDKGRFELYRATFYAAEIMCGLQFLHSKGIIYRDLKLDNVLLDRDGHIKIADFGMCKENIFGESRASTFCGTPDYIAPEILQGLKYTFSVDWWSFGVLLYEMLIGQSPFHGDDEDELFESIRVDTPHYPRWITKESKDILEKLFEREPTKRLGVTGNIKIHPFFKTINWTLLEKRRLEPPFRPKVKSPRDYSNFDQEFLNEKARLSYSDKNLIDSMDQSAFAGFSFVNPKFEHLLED
T1 sequence (Q04759 whole entry): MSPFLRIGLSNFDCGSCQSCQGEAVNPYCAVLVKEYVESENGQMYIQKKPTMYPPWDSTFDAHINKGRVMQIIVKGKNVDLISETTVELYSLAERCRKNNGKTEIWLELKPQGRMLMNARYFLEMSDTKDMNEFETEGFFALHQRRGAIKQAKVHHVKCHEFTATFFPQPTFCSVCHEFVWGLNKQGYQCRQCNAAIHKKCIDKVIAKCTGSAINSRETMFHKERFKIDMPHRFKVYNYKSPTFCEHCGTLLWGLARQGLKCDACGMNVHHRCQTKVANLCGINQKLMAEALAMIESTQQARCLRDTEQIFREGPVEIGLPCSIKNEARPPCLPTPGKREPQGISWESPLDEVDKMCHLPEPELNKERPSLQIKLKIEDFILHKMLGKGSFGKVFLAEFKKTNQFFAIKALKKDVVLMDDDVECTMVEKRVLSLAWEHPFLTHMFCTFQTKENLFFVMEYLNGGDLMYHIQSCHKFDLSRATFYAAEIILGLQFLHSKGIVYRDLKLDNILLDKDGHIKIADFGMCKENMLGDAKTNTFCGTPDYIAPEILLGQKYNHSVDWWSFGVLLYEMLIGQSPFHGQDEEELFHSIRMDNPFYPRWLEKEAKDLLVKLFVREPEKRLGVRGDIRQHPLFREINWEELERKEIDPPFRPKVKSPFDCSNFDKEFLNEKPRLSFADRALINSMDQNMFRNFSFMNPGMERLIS

Row | SMILES | Ki [1] | Ki [2] | Ki [3] | Ki [4] | Ki [5]
1 | Nc1ncc(Br)cc1C(=O)c1cccc(N2CCCN(C(=O)CC(F)(F)F)CC2)n1 [compound 75, 1-(4-(6-(2-amino-5-bromonicotinoyl)pyridin-2-yl)-1,4-diazepan-1-yl)-3,3,3-trifluoropropan-1-one] | < 50 nM | 50 to 500 nM | – | – | –
2 | C#Cc1ccc(N2CCN[C@@H](CC(C)C)C2)nc1C(=O)c1cccnc1N [compound 357] | 50 to 500 nM | – | – | – | –
3 | CC#Cc1ccc(N2CCN[C@@H](CC(C)C)C2)nc1C(=O)c1cccnc1N [compound 402] | 50 to 500 nM | – | < 50 nM | – | –
4 | Nc1ncccc1C(=O)c1cccc(NCC(O)CO)n1 (stereo not drawn) [(2-aminopyridin-3-yl)(6-(2,3-dihydroxypropylamino)pyridin-2-yl)methanone] | – | – | – | > 2800 nM | –
5 | CN1CCCN(c2cccc(C(=O)c3cc(Br)cnc3N)n2)CC1 [compound 67] | < 50 nM | 50 to 500 nM | – | – | –
6 | Cn1cc(-c2cnc(N)c(C(=O)c3cccc(N4CCCNCC4)n3)c2)c2ccccc21 [compound 210] | 50 to 500 nM | – | < 50 nM | – | –
7 | C=Cc1cnc(N)c(C(=O)c2cccc(N3CCCNCC3)n2)c1 [compound 66] | 50 to 500 nM | 50 to 500 nM | < 50 nM | – | –
8 | Nc1ncc(-c2ccccc2)cc1C(=O)c1cccc(N2CCCNCC2)n1 [compound 45] | < 50 nM | 50 to 500 nM | < 50 nM | – | –
9 | C/C=C/c1ccc(N2CCN[C@@H](CC(C)C)C2)nc1C(=O)c1cccnc1N [compound 361] | 50 to 500 nM | – | – | – | –
10 | Nc1ncc(Br)cc1C(=O)c1cccc(N2CCCNCC2)n1 [compound 14, (6-(1,4-diazepan-1-yl)pyridin-2-yl)(2-amino-5-bromopyridin-3-yl)methanone] | < 50 nM | 50 to 500 nM | < 50 nM | – | –
11 | C=Cc1cnc(N)c(C(=O)c2cccc(N3CCC(N)CC3)n2)c1 [compound 164] | 50 to 500 nM | – | – | – | –
12 | CC(C)C[C@H]1CN(c2cccc(C(=O)c3cccnc3N)n2)CCN1 [compound 193] | 50 to 500 nM | – | – | – | –
13 | Nc1ncccc1C(=O)c1nc(N2CCNCC2)ccc1C1CC1 [compound 354] | – | 500 to 2800 nM | > 2800 nM | – | 500 to 2800 nM
14 | Cc1cc(N)n(-c2ccc(C(F)(F)F)c(C(=O)c3cccnc3N)n2)n1 [compound 394] | – | 500 to 2800 nM | 500 to 2800 nM | – | 500 to 2800 nM
15 | Cc1cc(C(=O)c2cccnc2N)nn1C1CCCNCC1 (stereo not drawn) [compound 217] | – | 500 to 2800 nM | > 2800 nM | – | 500 to 2800 nM
16 | CC(C)C(CO)Nc1ccc(C(F)(F)F)c(C(=O)c2cccnc2N)n1 (stereo not drawn) [compound 399] | – | 500 to 2800 nM | 500 to 2800 nM | – | 500 to 2800 nM
17 | Nc1ncccc1C(=O)c1nc(NC2CCCNC2)ccc1C(F)(F)F (stereo not drawn) [compound 381] | – | 500 to 2800 nM | 500 to 2800 nM | – | 500 to 2800 nM
18 | Nc1ncccc1C(=O)c1nc(NC2CCCC(N)C2)ccc1C(F)(F)F (stereo not drawn) [compound 389] | – | 500 to 2800 nM | 500 to 2800 nM | – | 500 to 2800 nM
19 | Nc1ncc(-c2c[nH]c3ccccc23)cc1C(=O)c1cncc(N2CCCNCC2)n1 [compound 213] | 50 to 500 nM | – | – | – | –
20 | NCCCCNc1ccc(C(F)(F)F)c(C(=O)c2cccnc2N)n1 [compound 374] | – | 500 to 2800 nM | 500 to 2800 nM | – | 500 to 2800 nM

Row | SMILES | Ki [1] | Ki [2] | Ki [3] | Ki [4] | Ki [5]
21 | Nc1ncccc1C(=O)c1nc(NCC2CCCCN2)ccc1C(F)(F)F (stereo not drawn) [compound 382] | – | 500 to 2800 nM | 500 to 2800 nM | – | 500 to 2800 nM
22 | Nc1ncccc1C(=O)c1nc(N2CCC(N)C2)ccc1C(F)(F)F (stereo not drawn) [compound 369] | – | 500 to 2800 nM | 500 to 2800 nM | – | 500 to 2800 nM
23 | Nc1ncc(-c2c[nH]c3ccccc23)cc1C(=O)c1cccc(N2CCCNCC2)n1 [compound 179] | 50 to 500 nM | – | < 50 nM | – | –
24 | Nc1ncccc1C(=O)c1nc(N2CCNC(c3ccccc3)C2)ccc1C#CC1CC1 (stereo not drawn) [compound 408] | – | 500 to 2800 nM | 500 to 2800 nM | – | 500 to 2800 nM
25 | Nc1ncccc1C(=O)c1cccc(Br)n1 [compound 390] | – | 500 to 2800 nM | 500 to 2800 nM | – | 500 to 2800 nM
26 | Nc1ncccc1C(=O)c1nc(NC2CCCCC2N)ccc1C(F)(F)F (stereo not drawn) [compound 414] | – | 500 to 2800 nM | 500 to 2800 nM | – | 500 to 2800 nM
27 | Nc1ncccc1C(=O)c1cccc(N2CCNC(c3cccc(Cl)c3)C2)n1 (stereo not drawn) [compound 301] | 50 to 500 nM | – | – | – | –
28 | Nc1ncccc1C(=O)c1nc(NCCCO)ccc1C(F)(F)F [compound 419] | – | 500 to 2800 nM | 500 to 2800 nM | – | 500 to 2800 nM
29 | CCCNc1ccc(C(F)(F)F)c(C(=O)c2cccnc2N)n1 [compound 398] | – | 500 to 2800 nM | 500 to 2800 nM | – | 500 to 2800 nM
30 | NCCOc1ccc(C(F)(F)F)c(C(=O)c2cccnc2N)n1 [compound 378] | – | 500 to 2800 nM | 500 to 2800 nM | – | 500 to 2800 nM
31 | C=Cc1ccc(N2CCN[C@@H](CC(C)C)C2)nc1C(=O)c1cccnc1N [compound 346] | 50 to 500 nM | – | – | – | –
32 | Nc1ncccc1C(=O)c1nc(NC2CNC2)ccc1C(F)(F)F [compound 375] | – | 500 to 2800 nM | 500 to 2800 nM | – | 500 to 2800 nM
33 | C=Cc1cnc(N)c(C(=O)c2cccc(N3CCCN(C(=O)CC(F)(F)F)CC3)n2)c1 [compound 107, 1-(4-(6-(2-amino-5-vinylnicotinoyl)pyridin-2-yl)-1,4-diazepan-1-yl)-3,3,3-trifluoropropan-1-one] | < 50 nM | 50 to 500 nM | – | – | –
34 | Nc1ncccc1C(=O)c1ccn(C2CCCNCC2)n1 (stereo not drawn) [compound 203] | – | 500 to 2800 nM | 500 to 2800 nM | – | 500 to 2800 nM
35 | Nc1ncccc1C(=O)c1cccc(N2CCNC(Cc3cnc[nH]3)C2)n1 (stereo not drawn) [compound 304] | – | 500 to 2800 nM | > 2800 nM | – | 500 to 2800 nM
36 | CNCCN(C)c1ccc(C(F)(F)F)c(C(=O)c2cccnc2N)n1 [compound 380] | – | 500 to 2800 nM | 500 to 2800 nM | – | 500 to 2800 nM
37 | CC(C)[C@H](CN)Nc1ccc(C(F)(F)F)c(C(=O)c2cccnc2N)n1 [compound 370] | – | 500 to 2800 nM | 500 to 2800 nM | – | 500 to 2800 nM
38 | CC1CNCCN1c1cccc(C(=O)c2cccnc2N)n1 (stereo not drawn) [compound 191] | 50 to 500 nM | – | – | – | –
39 | NCCCOc1ccc(C(F)(F)F)c(C(=O)c2cccnc2N)n1 [compound 405] | – | 500 to 2800 nM | 500 to 2800 nM | – | 500 to 2800 nM

Reference: patent publication US20110077237A1, “KINASE INHIBITORS” (VERTEX PHARMACEUTICALS INCORPORATED, priority 2007, published 2011)
